Measured values published in US20140357582A1, “DESRHAMNOSYL ACTEOSIDE-CONTAINING OLIVE EXTRACT” (SUNTORY HOLDINGS LIMITED, priority 2012, published 2014).

Key:
SD (IGS) male rats = assay: Blood antioxidative activity (FRAP and ORAC methods) in rats after oral administration; type: in vivo, rat; details: 5 mL/kg; for blood antioxidative activity after administration: 0.8 mM suspension in 0.5% CMC or olive oil, FRAP and ORAC, up to 24 hours
Experimental: The influence of DRA on blood antioxidative activity was evaluated using rats. The evaluation of blood antioxidative activity was performed using the FRAP and ORAC methods. The DRA and acteoside used in this evaluation were those prepared by the same procedures as in Example 2 and Preparation Example 2, respectively.
(§1) SD (IGS) male rats (6 weeks old) were purchased from Charles River Laboratories Japan, Inc. After the rats were acclimated to the test environment for one week, those rats which grew normally were subjected to testing. The rats were fasted overnight and divided into five groups each consisting of three rats. Rats were orally administered a 0.5% CMC solution (Group 1), a suspension of DRA in 0.5% CMC (0.8 mM) (Group 2), a suspension of purified acteoside in 0.5% CMC (0.8 mM) (Group 3), an olive oil solution (Nacalai Tesque, Inc.; Code No. 073-26) (Group 4), and a suspension of DRA in olive oil (0.8 mM) (Group 5), each at a dose of 5 mL/kg. Before administration and 0.5, 1, 3, 6, 9 and 24 hours after administration for Groups 1-3, or before administration and 1, 3, 6, 9 and 24 hours after administration for Groups 4-5, a blood sample was collected from the caudal vein in heparinized tube and was centrifuged (at 8,000 rpm for 10 min.) to obtain plasma sample. At a later date, plasma FRAP activity as well as the ORAC activity of the supernatants obtained after deproteinization with acetone were evaluated.

[1] = Absorption in the body: blood concentrations by LC-MS/MS after oral administration; type: in vivo, rat; details: rats; for Cmax: male, SD (IGS), rat, 4 µmol/kg, suspension in 0.5% CMC (0.8 mM), 5 mL/kg, pooled plasma, β-glucuronidase/arylsulphatase treated, read-out: maximum blood concentration (Cmax) of the administered compound itself
Experimental: as §1
Among the plasma samples collected for the determination of blood antioxidative activity in Example 5, some parts of those samples from Group 1 (a 0.5% CMC solution), Group 2 (a suspension of DRA in 0.5% CMC) and Group 3 (a suspension of acteoside in 0.5% CMC) were used to determine the blood concentrations of the respective samples after administration.
After equivalent amounts of the plasma samples from the three rats in each group were mixed and homogenized, 90 μL of a helix pomatia-derived β-glucuronidase/arylsulphatase/acetate buffer (pH 5.0) was added to 90 μL of the plasma mixture and incubation was conducted at 37° C. for one hour. After 900 μL of acetonitrile was added to terminate the reaction, 10 μL of an aqueous solution of 1% ascorbic acid and 10 μL of an internal standard solution were added, and the contents were mixed and centrifuged (at 15,000 rpm for 10 min.) to recover a supernatant. The recovered supernatant was concentrated under reduced pressure, dissolved again in 50% methanol, passed through a filter, and subjected to LC-MS/MS analysis to quantify acteoside, DRA, hydroxytyrosol, and coffeic acid. The amounts of acteoside, DRA, hydroxytyrosol, and coffeic acid were determined by the ratio of each of their peak areas to the peak area of hesperidin (Wako) used as an internal standard. The LC-MS/MS analysis conditions are shown below.

[2] = acteoside versus DRA; cited from earlier work
[3] = oral; cited from earlier work
[4] = suspension in 0.5% CMC, DRA versus acteoside

| Structure (SMILES) | blood antioxidative activity after administration (SD (IGS) male rats) | time of earlier peak of FRAP activity after administration (SD (IGS) male rats; DRA 0.8 mM, first of bimodal peaks) [h] | time of later peak of FRAP activity after administration (SD (IGS) male rats; DRA 0.8 mM, second of bimodal peaks) [h] | Cmax [1] [µM] | amount absorbed in the body relative to acteoside, by AUCs of coffeic acid [1, 4] | amount absorbed in the body relative to acteoside, by AUCs of hydroxytyrosol [1, 4] | in vitro antioxidative activity, comparison [2] | absorbability when orally ingested [3] |
| --- | --- | --- | --- | --- | --- | --- | --- | --- |
| O=C(C=Cc1ccc(O)c(O)c1)O[C@@H]1C(CO)OC(OCCc2ccc(O)c(O)c2)C(O)C1O (stereo partly shown) [DRA, desrhamnosyl acteoside] | apparent increase | 1 to 3 | 9 | < 1 | about 13 times | about 3 times | – | – |
| C[C@@H]1O[C@@H](O[C@@H]2[C@@H](O)[C@H](OCCc3ccc(O)c(O)c3)O[C@H](CO)[C@H]2OC(=O)/C=C/c2ccc(O)c(O)c2)[C@H](O)[C@H](O)[C@H]1O [acteoside] | little increase | – | – | < 1 | – | – | more active than DRA | poor absorbability |
